Test system: CHO cell line
Assay: In vitro test of metabolization in CHO cells (steroids in culture medium by GC/MS)
Method: In Vitro Test of Metabolization
In this example, CHO cell line was used. These cells derived from the ovary have all the enzymes needed to metabolize pregnenolone in downstream steroids.
The content in CHO culture medium of allopregnanolone (ALLO), epiallopregnanolone (EPIALLO), pregnenolone (PREG), DHEA, and testosterone (TESTO) was measured by GC/MS.
Pregnenolone derivatives having C3 substituted with benzyloxy were tested using in vitro test in CHO cells.
Results expressed as percentage changes from CHO cells treated with Pregnenolone or as pg/ml (0=concentrations below the detection limit).

[1] = CHO culture medium, Pregnenolone 1 μM, 48 hours, GC/MS

Row | SMILES | metabolised in Pregnenolone (in words) (CHO cells, Table 2) | Allopregnanolone and Epiallopregnanolone in the culture medium (in words) (CHO cells, 1 μM, 48 hours) | ALLO (allopregnanolone) steroid levels [1] | DHEA steroid levels [1] | EPIALLO (epiallopregnanolone) steroid levels [1] | PREG (pregnenolone) steroid levels [1] | TESTO (testosterone) steroid levels [1]
1 | COc1ccc(CO[C@H]2CC[C@@]3(C)C(=CCC4C3CC[C@@]3(C)C4CC[C@]3(C)C(C)=O)C2)cc1 (stereo partly drawn) [Compound 68, 3β-(p-methoxy- benzyloxy)-17α- methyl- pregnenolone] | not metabolised | – | – | – | – | – | –
2 | CC(=O)[C@H]1CC[C@H]2[C@@H]3CC=C4C[C@@H](O)CC[C@]4(C)[C@H]3CC[C@]12C [Pregnenolone] | – | significant increase | 3529.99 pg/mL | 0.00 pg/mL | 16963.84 pg/mL | 11440.66 pg/mL | 0.00 pg/mL

— US9732115B2, “3-(4′-substituted)-benzyl-ether derivatives of pregnenolone” (INSERM (Institut National de la Sante et de la Recherche …, priority 2012, dated 2017)
